Assay results: patent publication US9415055B2, “Cyclic amines” (H. Lundbeck A/S, priority 2012, dated 2016)

What follows are molecules tested against P2X7 receptor (Homo sapiens (Human), UniProt Q99572) (assay: P2X7 FLIPR assay: antagonism of BzATP response in 293 HEK cells stably expressing P2X7 receptor). Conditions: FLIPR fluorescence (Fluo-4), agonist BzATP, 293 HEK cells stably transfected with P2X7 receptor.
Type: cell-based
Procedure: Cells were plated to cell density of approximately 15,000 cells/well in 384-well assay plates (50 μl/well) with 1.5% low serum media (DMEM, 1.5% BCS, 1% L-glut (2 mM), 1% P/S).
Cells were plated to cell density of approximately 15,000 cells/well in 384-well assay plates (50 μl/well) with 1.5% low serum media (DMEM, 1.5% FBS, 1% L-glut (2 mM), 10 mM HEPES, 1% P/S). Cells were plated 24 hours prior to assay. Cells expressing human, rat or mouse P2X7 receptor were assayed in the following manner.
Fluo-4 NW dye mix (Molecular Probes, Inc., Eugene, Oreg., USA) was prepared in buffer (see manufacturer's instructions). Cell plates were removed from the 37° C. incubator, the media discarded and then 30 μL of dye was added to each well. Plates were placed in the 37° C., non-CO2 incubator for 30 minutes and then room temperature for 30 minutes.
Compound mixtures (A) were added to assay plates containing cells and placed at room temperature for 30 minutes, then BzATP (B) was added. Fluorescence was read using the Tetra FLIPR® (Molecular Devices, Inc., Sunnyvale, Calif., USA) and IC50 values were calculated by standard methods to determine antagonist activity.

Chain of P2X7 receptor (Q99572 whole entry): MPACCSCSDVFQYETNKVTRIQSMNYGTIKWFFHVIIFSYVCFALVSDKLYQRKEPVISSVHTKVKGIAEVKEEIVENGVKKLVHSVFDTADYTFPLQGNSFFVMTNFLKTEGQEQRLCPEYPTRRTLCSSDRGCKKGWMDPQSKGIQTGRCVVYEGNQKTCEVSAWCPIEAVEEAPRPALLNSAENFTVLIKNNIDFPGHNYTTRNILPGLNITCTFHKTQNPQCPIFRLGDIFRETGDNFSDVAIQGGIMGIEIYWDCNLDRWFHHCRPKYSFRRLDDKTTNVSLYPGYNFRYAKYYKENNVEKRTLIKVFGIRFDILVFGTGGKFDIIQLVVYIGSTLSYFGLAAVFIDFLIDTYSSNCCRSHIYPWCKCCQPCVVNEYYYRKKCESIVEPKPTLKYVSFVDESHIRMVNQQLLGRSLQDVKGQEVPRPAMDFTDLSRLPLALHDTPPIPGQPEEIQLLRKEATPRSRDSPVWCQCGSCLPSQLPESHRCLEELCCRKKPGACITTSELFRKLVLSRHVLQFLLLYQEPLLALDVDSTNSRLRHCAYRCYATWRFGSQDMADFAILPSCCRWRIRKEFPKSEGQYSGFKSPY

In order of falling IC50:
1. CC1(C)CCN(C(CNC(=O)c2cccc(Cl)c2Cl)c2cnc(C(F)(F)F)nc2)CC1 (stereo not shown) [2,3-dichloro-N-(2-(4,4-dimethylpiperidin-1-yl)-2-(2-(trifluoromethyl)pyrimidin-5-yl)ethyl)benzamide]  2500 nM
2. Cc1cccc(C(=O)NCC(c2ccncc2)N2CCOCC2)c1C (stereo not shown) [2,3-Dimethyl-N-(2-morpholin-4-yl-2-pyridin-4-yl-ethyl)-benzamide]  1400 nM
3. Cc1ncc(C(CNC(=O)c2cccc(F)c2Cl)N2CCOCC2)cn1 (stereo not shown) [2-chloro-3-fluoro-N-(2-(2-methylpyrimidin-5-yl)-2-morpholinoethyl)benzamide]  1200 nM
4. Cc1ncc(C(CNC(=O)c2ccccc2Cl)N2CCCOCC2)cn1 (stereo not shown) [2-chloro-N-(2-(2-methylpyrimidin-5-yl)-2-(1,4-oxazepan-4-yl)ethyl)benzamide]  680 nM
5. O=C(NCC(c1ccc(C(F)(F)F)nc1)N1CCOCC1)c1c(F)cccc1F (single isomer, unassigned; (-)) [(−)2,6-difluoro-N-[2-morpholino-2-[6-(trifluoromethyl)-3-pyr] [(−)2,6-difluoro-N-(2-morpholino-2-(6-(trifluoromethyl)pyridin-3-yl)ethyl)benzamide]  480 nM
6. COc1ccc(C(CNC(=O)c2cccc(C)c2C)N2CCCCC2)cc1 (stereo not shown) [N-[2-(4-Methoxy-phenyl)-2-piperidin-1-yl-ethyl]-2,3-dimethyl-benzamide]  420 nM
7. COc1ccc(C(CNC(=O)c2cccc(Cl)c2Cl)N2CCCCC2)cc1 (stereo not shown) [2,3-Dichloro-N-[2-(4-methoxy-phenyl)-2-piperidin-1-yl-ethyl]-benzamide]  350 nM
8. Cc1ncc(C(CNC(=O)c2c(F)cccc2Cl)N2CCCC(F)(F)C2)cn1 (single isomer, unassigned; (+)) [(+)2-chloro-N-[2-(3,3-difluoro-1-piperidyl)-2-(2-methylpyrim] [(+)2-chloro-6-fluoro-N-(2-(3,3-difluoropiperidin-1-yl)-2-(2-methylpyrimidin-5-yl)ethyl)benzamide]  53 nM
9. Cc1ncc(C(CNC(=O)c2ccccc2Cl)N2CCC(F)CC2)cn1 (single isomer, unassigned; (-)) [(−)2-chloro-N-[2-(4-fluoro-1-piperidyl)-2-(2-methylpyrimidin] [(−)2-chloro-N-(2-(4-fluoropiperidin-1-yl)-2-(2-methylpyrimidin-5-yl)ethyl)benzamide]  45 nM
10. Cc1ccc(C(CNC(=O)c2cccc(F)c2Cl)N2CCC(F)(F)CC2)cn1 (single isomer, unassigned; (+)) [(+)2-chloro-N-[2-(4,4-difluoro-1-piperidyl)-2-(6-methyl-3-py] [(+)2-chloro-3-fluoro-N-(2-(4,4-difluoropiperidin-1-yl)-2-(2-methylpyridin-5-yl)ethyl)benzamide]  33 nM
11. Cc1ncc(C(CNC(=O)c2cccc(Cl)c2Cl)N2CCCOCC2)cn1 (stereo not shown) [2,3-dichloro-N-(2-(2-methylpyrimidin-5-yl)-2-(1,4-oxazepan-4-yl)ethyl)benzamide]  29 nM
12. Cn1cc(C(CNC(=O)c2cccc(Cl)c2Cl)N2CCC(F)(F)CC2)cn1 (single isomer, unassigned; (-)) [(−)2,3-dichloro-N-[2-(4,4-difluoro-1-piperidyl)-2-(1-methylp] [(−)2,3-dichloro-N-(2-(4,4-difluoropiperidin-1-yl)-2-(1-methyl-1H-pyrazol-4-yl)ethyl)benzamide]  25 nM
13. Cc1ncc(C(CNC(=O)c2c(F)cccc2Cl)N2CCC(F)(F)CC2)cn1 (single isomer, unassigned; (+)) [(+)2-chloro-N-[2-(4,4-difluoro-1-piperidyl)-2-(2-methylpyrim] [(+)2-chloro-6-fluoro-N-(2-(4,4-difluoropiperidin-1-yl)-2-(2-methylpyrimidin-5-yl)ethyl)benzamide]  19 nM
14. CCc1ncc(C(CNC(=O)c2c(Cl)cccc2Cl)N2CCC(F)(F)CC2)cn1 (single isomer, unassigned; (+)) [(+)2,6-dichloro-N-[2-(4,4-difluoro-1-piperidyl)-2-(2-ethylpy] [(+2,6-dichloro-N-(2-(4,4-difluoropiperidin-1-yl)-2-(2-ethylpyrimidin-5-yl)ethyl)benzamide]  15 nM
15. O=C(NCC(c1cnc(C(F)(F)F)nc1)N1CCC(F)CC1)c1c(Cl)cccc1Cl (single isomer, unassigned; (-)) [(−)2,6-dichloro-N-[2-(4-fluoro-1-piperidyl)-2-[2-(trifluorom] [(−)2,6-dichloro-N-(2-(4-fluoropiperidin-1-yl)-2-(2-(trifluoromethyl)pyrimidin-5-yl)ethyl)benzamide]  15 nM
16. O=C(NCC(c1cnc(C2CC2)nc1)N1CCC(F)(F)CC1)c1c(F)cccc1Cl (single isomer, unassigned; (-)) [(−)2-chloro-N-[2-(2-cyclopropylpyrimidin-5-yl)-2-(4,4-difluo] [(−)2-chloro-6-fluoro-N-(2-(2-cyclopropylpyrimidin-5-yl)-2-(4,4-difluoropiperidin-1-yl)ethyl)benzamide]  11 nM
17. O=C(NCC(c1cnc(C(F)(F)F)nc1)N1CCC(F)(F)CC1)c1c(F)cccc1Cl (single isomer, unassigned; (+)) [(+)2-chloro-N-[2-(4,4-difluoro-1-piperidyl)-2-[2-(trifluorom] [(+)2-chloro-6-fluoro-N-(2-(4,4-difluoropiperidin-1-yl)-2-(2-(trifluoromethyl)pyrimidin-5-yl)ethyl)benzamide]  8.3 nM
18. O=C(NCC(c1ccc(C(F)(F)F)nc1)N1CCOCC1)c1c(F)cccc1Cl (single isomer, unassigned; (-)) [(−)2-chloro-6-fluoro-N-(2-morpholino-2-(6-(trifluoromethyl)p] [(−)2-chloro-6-fluoro-N-(2-morpholino-2-(6-(trifluoromethyl)pyridin-3-yl)ethyl)benzamide]  6.1 nM
19. O=C(NCC(c1ccc(C(F)(F)F)nc1)N1CCOCC1)c1cccc(Cl)c1Cl (single isomer, unassigned; (+)) [(+)2,3-dichloro-N-[2-morpholino-2-[6-(trifluoromethyl)-3-pyr] [(+)2,3-Dichloro-N-[2-morpholino-2-[6-(trifluoromethyl)-3-pyridyl]ethyl]benzamide]  5.5 nM
20. COc1cccc(C(=O)NCC(c2cnc(C(F)(F)F)nc2)N2CCC(F)(F)CC2)c1Cl (single isomer, unassigned; (-)) [(−)2-chloro-N-[2-(4,4-difluoro-1-piperidyl)-2-[2-(trifluorom] [(−)2-chloro-N-(2-(4,4-difluoropiperidin-1-yl)-2-(2-(trifluoromethyl)pyrimidin-5-yl)ethyl)-3-methoxybenzamide]  4.8 nM
21. O=C(NCC(c1cnc(C(F)(F)F)nc1)N1CCC(F)(F)CC1)c1c(Cl)cccc1Cl (single isomer, unassigned; (+)) [(+)2,6-dichloro-N-[2-(4,4-difluoro-1-piperidyl)-2-[2-(triflu] [(+)2,6-dichloro-N-(2-(4,4-difluoropiperidin-1-yl)-2-(2-(trifluoromethyl)pyrimidin-5-yl)ethyl)benzamide]  4.7 nM
22. O=C(NCC(c1ccc(C(F)F)nc1)N1CCC(F)(F)CC1)c1cccc(Cl)c1Cl (single isomer, unassigned; (-)) [(−)2,3-dichloro-N-[2-[6-(difluoromethyl)-3-pyridyl]-2-(4,4-d] [(−)2,3-dichloro-N-(2-(2-(difluoromethyl)pyridin-5-yl)-2-(4,4-difluoropiperidin-1-yl)ethyl)benzamide]  4.2 nM
23. O=C(NCC(c1ccc(F)nc1)N1CCC(F)(F)CC1)c1ccccc1Cl (stereo not shown) [2-chloro-N-[2-(4,4-difluoro-1-piperidyl)-2-(6-fluoro-3-pyridyl)ethyl]benzamide]  4 nM
24. O=C(NCC(c1cnc(C2CC2)nc1)N1CCC(F)(F)CC1)c1cccc(Cl)c1Cl (single isomer, unassigned; (-)) [(−)2,3-dichloro-N-[2-(2-cyclopropylpyrimidin-5-yl)-2-(4,4-di] [(−)2,3-dichloro-N-(2-(2-cyclopropylpyrimidin-5-yl)-2-(4,4-difluoropiperidin-1-yl)ethyl)benzamide]  3.5 nM
25. O=C(NCC(c1cnc(C2CC2)nc1)N1CCC(F)(F)CC1)c1ccccc1Cl (single isomer, unassigned; (+)) [(+)2-chloro-N-[2-(2-cyclopropylpyrimidin-5-yl)-2-(4,4-difluo] [(+)2-chloro-N-(2-(2-cyclopropylpyrimidin-5-yl)-2-(4,4-difluoropiperidin-1-yl)ethyl)benzamide]  3 nM
26. O=C(NCC(c1ccc(C(F)(F)F)nc1)N1CCOCC1)c1cccc(Cl)c1Cl (single isomer, unassigned; (-)) [(−)2,3-dichloro-N-[2-morpholino-2-[6-(trifluoromethyl)-3-pyr] [(−)2,3-Dichloro-N-[2-morpholino-2-[6-(trifluoromethyl)-3-pyridyl]ethyl]benzamide]  2 nM
27. O=C(NCC(c1ccc(C(F)(F)F)nc1)N1CCC(F)(F)CC1)c1ccccc1Cl (stereo not shown) [2-Chloro-N-[2-(4,4-difluoro-1-piperidyl)-2-[6-(trifluoromethyl)-3-pyridyl]ethyl]benzamide]  1.8 nM
28. O=C(NCC(c1ccc(Cl)cc1)N1CCOCC1)c1cccc(Cl)c1Cl (stereo not shown) [2,3-Dichloro-N-[2-(4-chloro-phenyl)-2-morpholin-4-yl-ethyl]-benzamide]  0.6 nM
